Like-named read-outs stand apart in the source and are kept apart here.
Assays:
[1] = tested on: E. coli (ATCC 25922) biofilm; assay: MBEC assay, inhibition of biofilm formation; type: cell-based, Escherichia coli
Procedure: (§1) The MBEC™ assay (formerly the Calgary biofilm device; Innovotech Inc., Canada) is a well-established high throughput assay for assessment of anti-biofilm activity of test agents in a 96-well format. Within this assay, the biofilm is formed on the plastic pegs of the plate lid. After inoculated media is introduced to the wells of the 96-well plate, the plate is placed in a shaking incubator to generate the necessary shear force for biofilm growth on the pegs. Following a suitable incubation time, the individual biofilms can be treated with varying concentrations of test agents (challenge plate). After the desired treatment time, the remaining biofilm-associated bacteria are retrieved from the pegs through sonication (recovery plate). Serial dilution and/or plating of the recovered bacterial suspension allow for the quantification of test agents' efficacy against pre-formed biofilms. Additionally, readout of the challenge plate from the biofilm treatment can be used to determine MIC values of test agents. The absence of growth in the recovery plate indicates complete biofilm eradication and the lowest concentration of a test agent that achieves this is designated as the minimum biofilm eradication concentration (MBEC). The MBEC™ assay is also amenable to assess potential synergistic effects of combination treatments, as well as efficacy of test agents in inhibiting or inducing biofilm formation.
The MBEC™ plates were inoculated with either 10^5 CFU/mL (low inoculum) or 10^7 CFU/mL (high inoculum) of stationary phase E. coli (ATCC 25922) with simultaneous addition of antibiotics to evaluate the progression of biofilm formation under antibiotic challenge. After 24 hour incubation, the bacteria were recovered and enumerated (as above). FIG. 6. […] FIG. 7.

[2] = tested on: E. coli (ATCC 25922) biofilm; assay: MBEC assay, activity against established 24 hour biofilm; type: cell-based, Escherichia coli; conditions: 24 hours challenge
Procedure: as §1, with “formation. The MBEC™ plates were inoculated with 10^7 CFU/mL of stationary phase E. coli (ATCC 25922) and incubated for 24 hours to allow formation of a robust biofilm. The individual biofilms formed on the pegs were challenged with varying concentrations of antibiotics for 24 hours, followed by recovery of the surviving bacteria. Bacterial enumeration was performed using a Most Probable Number (MPN) assay (Sutton, Journal of Validation Technology 16 (3): 35-38, 2010, incorporated herein by reference) in a 96-well format.” for “formation.”

[3] = tested on: human plasma protein; conditions: cited from earlier work
[4] = IV to oral transition therapy; cUTI; cited from earlier work
[5] = IV; cIAI; cited from earlier work

Row | SMILES | reduction in total bioburden of biofilm compared to control ([1]; (approx. 15% of MIC), low inoculum) | induction of biofilm formation ([1]; sub-MIC doses) | reduction of total biofilm-associated bacteria ([2]; at around MIC) | reduction in bioburden ([2]; at higher concentrations) | human plasma protein binding ([3]; Concentration 100 ng/mL, literature) [%] | human plasma protein binding ([3]; Concentration 1,000 ng/mL, literature) [%] | human plasma protein binding ([3]; Concentration 10,000 ng/mL, literature) [%] | human plasma protein binding ([3]; Concentration 100,000 ng/mL, literature) [%] | type of plasma protein binding ([3]; binding increases with increasing drug concentrations) | human plasma protein binding, Mean ([3]; literature) | primary endpoint, non-inferiority compared to levofloxacin [4] | primary endpoint [5]
1 | O=C(O)c1cn(C2CC2)c2cc(N3CCNCC3)c(F)cc2c1=O [ciprofloxacin] | no reduction in the total bioburden | did not induce biofilm formation | did not show activity | up to 5 log units |  |  |  |  |  |  |  | 
2 | CN(C)[C@@H]1C(O)=C(C(N)=O)C(=O)[C@@]2(O)C(O)=C3C(=O)c4c(O)c(NC(=O)CN5CCCC5)cc(F)c4C[C@H]3C[C@@H]12 [eravacycline] |  |  |  |  | 79.3 | 87.0 | 89.3 | 97.0 | atypical, non-linear protein binding | 79-97% | failed to achieve its primary endpoint of statistical non-inferiority | did meet its primary endpoint

Reference: patent US10238670B2, “9-aminomethyl minocycline compounds and methods of use thereof in urinary tract infection (UTI) treatment” (Paratek Pharmaceuticals, Inc., priority 2016, dated 2019)
